According to patent EP0552624B1, “Use of 9-cis retinoic acid, salts and esters thereof for the treatment of epithelial tumors” (F. HOFFMANN-LA ROCHE AG, priority 1992, dated 1993):

Assays:
[1] = system: SKv-l1, a transformed keratinocyte cell line containing human papilloma virus 16 (HPV 16); test: Proliferation assay by direct cell counting on HPV 16-containing transformed keratinocytes; format: cell-based; settings: 48 h, 10^-6 M, incubated for 2 days, p < 0.001, read-out: inhibited proliferation (growth inhibition in % compared to controls)
Experimental: 9-cis retinoic acid was further investigated on its effect on other transformed cell lines. A proliferation assay was performed on a virus containing cell line. SKv-l1, a transformed keratinocyte cell line containing human papilloma virus 16 (HPV 16) was tested with regard to inhibition of proliferation by 9-cis retinoic acid in two experiments with four replicates. 5·10^4 cells/well were plated in Eagle's medium and incubated for 2 days. Direct cell counting with a hemocytometer was done before and after incubation with the retinoid in a concentration of 10^-6 M and in corresponding DMSO controls. Growth inhibition was expressed in % compared to controls.

SKv-e2 (tumorigenic) [2] = test: Tumor cell induced angiogenesis, in vitro preincubation of cells, SKv-e2; format: in vivo; settings: SKv-e2 cells preincubated in vitro 48 hours with 10^-7 M, injected intradermally into untreated Balb/c mice; controls 34.7±3.7
Experimental: (§1) The angiogenesis assays have been, previously described (Sidky YA and Auerbach R. Lymphocyte induced angiogenesis: A quantitative and sensitive assay of the graft-vs-host reaction. J. exp Med 141: 1084-1100, 1975. Majewski S et al. Inhibition of tumour-induced angiogenesis by systemically administered protamine sulphate. Int J Cancer 33: 831-833, 1984). Two assays were used in testing 9-cis retinoic acid. In the first assay the retinoid was added in vitro to the cell line before being injected into mice. In the second assay the mice were injected intraperitoneally with the retinoid in vivo before the tumor cell line was injected intradermally.
(§2) Method: Cells of two tumorigenic cell lines, SKv-e2 and HeLa, and of a non-tumorigenic cell line, SKv-e1 were preincubated in vitro for 48 hours with 9-cis retinoic acid at a concentration of 10^-7 M followed by cell counting and washing in TC 199 medium. The cell concentration was adjusted to 2·10^5 viable cells per 0.1 ml of medium and injected intradermally into X-ray irradiated, but not retinoid-treated Balb/c mice. Controls were injected with tumor cells preincubated with DMSO. The angiogenic effect was determined according to the methods referred to above.

HeLa (tumorigenic) [3] = test: Tumor cell induced angiogenesis, in vitro preincubation of cells, HeLa; format: in vivo; settings: HeLa cells preincubated in vitro 48 hours with 10^-7 M, injected intradermally into untreated Balb/c mice; controls 32.5±2.7
Experimental: as §1, §2

SKv-e1 (non-tumorigenic) [4] = test: Cell induced angiogenesis, in vitro preincubation of cells, SKv-e1; format: in vivo, Balb/c mice
Experimental: as §1, §2

HeLa (tumorigenic) [5] = test: Cell induced angiogenesis, in vivo pretreatment of mice, HeLa; parameters: species or system Balb/c mice; settings: mice pretreated in vivo intraperitoneally before intradermal cell injection, control 28.3 ± 0.8
Experimental: as §1

SKv-12 (Tumorigenic) = test: Cell induced angiogenesis, in vivo pretreatment of mice, SKv-12; parameters: species or system Balb/c mice; settings: mice pretreated in vivo intraperitoneally before intradermal cell injection, control 30.3 ± 2.6
Experimental: as §1

SKv-e2 (tumorigenic) [6] = test: Cell induced angiogenesis, in vivo pretreatment of mice, SKv-e2; parameters: species or system Balb/c mice; settings: mice pretreated in vivo intraperitoneally before intradermal cell injection, control 31.3 ± 2.7
Experimental: as §1

SKv-e1 (non-tumorigenic) [7] = test: Cell induced angiogenesis, in vivo pretreatment of mice, SKv-e1; parameters: species or system Balb/c mice
Experimental: as §1

[8] = Acute toxicity, single intraperitoneal dose; format: in vivo, Füllinsdorf albino mice; settings: single i.p. dose in rape oil
Experimental: Acute Toxicity was determined in Füllinsdorf albino mice. 9-cis retinoic acid was suspended in rape oil and administered intraperitoneally in one single dose. The lethal dose (LD) of 10%, 50% and 90% of the mice was recorded 24 hours, 10 days and 20 days after the application of the single dose. For each group 10 mice were used.

CC(=CC=C/C(C)=C/C(=O)O)/C=C/C1=C(C)CCCC1(C)C (stereo in doubt) [9-cis retinoic acid, (E,Z,E,E)-3,7-dimethyl-9-[2,6,6-trimethyl-1-cyclohexen-1-yl]-2,4,6,8-nonatetraenoic acid]
inhibition at 1 µM [1]: 32.4%
Mean number of blood vessels (SKv-e2 (tumorigenic) [2]): 23.6±4.2 p < 0.001
Mean number of blood vessels (HeLa (tumorigenic) [3]): 23.8±2.9 p < 0.001
Mean number of blood vessels (SKv-e1 (non-tumorigenic) [4]; SKv-e1 cells preincubated in vitro 48 hours with 10^-7 M, injected intradermally into untreated Balb/c mice, controls 26.3±1.5): 25.6±2.2 p < 0.1
angiogenesis induced by the non-tumorigenic subline (SKv-e1 (non-tumorigenic) [4]; in vitro preincubation of SKv-e1 cells, result in words): did not inhibit angiogenesis
Mean number of blood vessels (HeLa (tumorigenic) [5]): 16.3 ± 1.8
Mean number of blood vessels (SKv-12 (Tumorigenic)): 15.3 ± 1.0
Mean number of blood vessels (SKv-e2 (tumorigenic) [6]): 19.7 ± 0.6
Mean number of blood vessels (SKv-e1 (non-tumorigenic) [7]; SKv-e1, mice pretreated in vivo intraperitoneally before intradermal cell injection, control 19.7 ± 3.7): 24.3 ± 5.6
anti-angiogenic effect with a non-tumorigenic cell line (SKv-e1 (non-tumorigenic) [7]; mice treated in vivo, result in words): no anti-angiogenic effect
LD50 at 24 hours ([8]; Füllinsdorf albino, mouse, in vivo, ip, recorded 24 hours after): > 4000 mg/kg
LD50 at 10 days ([8]; Füllinsdorf albino, mouse, in vivo, ip, recorded 10 days after): 1400 mg/kg
LD50 at 20 days ([8]; Füllinsdorf albino, mouse, in vivo, ip, recorded 20 days after): 1400 mg/kg
LD 10% ([8]; recorded 24 hours after): > 4000 mg/kg
LD 90% ([8]; recorded 24 hours after): > 4000 mg/kg
LD 10% ([8]; recorded 10 days after): 1200 mg/kg
LD 90% ([8]; recorded 10 days after): 1800 mg/kg
LD 10% ([8]; recorded 20 days after): 1200 mg/kg
LD 90% ([8]; recorded 20 days after): 1800 mg/kg
